# Assay results reported in US20230085307A1, “PYRIDAZINONE COMPOUND AND HERBICIDE” (NISSAN CHEMICAL CORPORATION, priority 2019, published 2023).
# System: barnyard grass
# Test: Test Example 5: herbicidal effect by foliage application, plastic box (Table 20, symbol H)
# Type: in vivo, barnyard grass (Echinochloa crus-galli)
# Settings: foliage application, 320 g/ha, three weeks after application
# In short: (§1)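 Foliar spray test: emulsion formulation diluted in water to a set application rate, sprayed onto 14-day-old plants raised in diluvial soil at 25° C to 30° C under glass. Both herbicidal effect and crop effect rated visually three weeks later.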
row,Compound,"H: barnyard grass, herbicidal effect grade"
1,CCCC(=O)Oc1c(C)nn(C)c(=O)c1-c1c(-c2ccc(F)cc2OCC)sc2cc(Cl)ccc12 [3-046],5 (Herbicidal rate of 90% or more (almost completely withered))
2,CCOc1ccccc1-c1sc2cc(C)ccc2c1-c1c(O)c(C)nn(C)c1=O [3-053],5 (Herbicidal rate of 90% or more (almost completely withered))
3,CCOc1cc(F)ccc1-c1sc2cc(C)ccc2c1-c1c(O)c(C)nn(C)c1=O [3-057],5 (Herbicidal rate of 90% or more (almost completely withered))

# System: oval-leafed pondweed
# Test: Test Example 1: herbicidal activity, application before weed generation under submerged conditions (Table 16, symbol C)
# Type: in vivo, oval-leafed pondweed (Monochoria vaginalis)
# Settings: amount of applied herbicide 320 g/ha
# In short: (§2)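 Emulsion formulation, water-diluted to set dose, was put onto the flooded surface (4 cm depth, alluvial soil) the same day weeds were sown and 2.5-leaf rice transplanted. After 3 weeks at 25-30 °C under glass, each species was rated 0 (≤5% kill) to 5 (≥90% kill).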
row,Compound,"Herbicidal effect, C: oval-leafed pondweed"
1,CCCC(=O)Oc1c(C)nn(C)c(=O)c1-c1c(-c2ccc(F)cc2OCC)sc2cc(Cl)ccc12 [3-046],0 (Herbicidal rate of 5% or less (almost no effect))
2,CCOc1ccccc1-c1sc2cc(C)ccc2c1-c1c(O)c(C)nn(C)c1=O [3-053],4 (Herbicidal rate of 70% or more and less than 90%)
3,CCOc1cc(F)ccc1-c1sc2cc(C)ccc2c1-c1c(O)c(C)nn(C)c1=O [3-057],5 (Herbicidal rate of 90% or more (almost completely withered))

# System: Japanese bulrush
# Test: Test Example 1: herbicidal activity, application before weed generation under submerged conditions (Table 16, symbol B)
# Type: in vivo, Japanese bulrush (Schoenoplectus juncoides)
# Settings: amount of applied herbicide 320 g/ha
# In short: as §2
row,Compound,"Herbicidal effect, B: Japanese bulrush"
1,CCCC(=O)Oc1c(C)nn(C)c(=O)c1-c1c(-c2ccc(F)cc2OCC)sc2cc(Cl)ccc12 [3-046],0 (Herbicidal rate of 5% or less (almost no effect))
2,CCOc1ccccc1-c1sc2cc(C)ccc2c1-c1c(O)c(C)nn(C)c1=O [3-053],5 (Herbicidal rate of 90% or more (almost completely withered))
3,CCOc1cc(F)ccc1-c1sc2cc(C)ccc2c1-c1c(O)c(C)nn(C)c1=O [3-057],5 (Herbicidal rate of 90% or more (almost completely withered))

# System: rice flat sedge
# Test: Test Example 3: herbicidal effect by foliage application, Wagner pot (Table 18, symbol E)
# Type: in vivo, rice flat sedge (Cyperus iria)
# Settings: 320 g/ha
# In short: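 Plants were sown in alluvial soil held under 0.1–0.5 cm standing water and grown 14 days in a greenhouse at 25–30 °C. An emulsifiable formulation, water-diluted to the set dose, was then sprayed onto the foliage, and effects were scored three weeks later using previously defined criteria.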
row,Compound,herbicidal effect on rice flat sedge (E)
1,CCCC(=O)Oc1c(C)nn(C)c(=O)c1-c1c(-c2ccc(F)cc2OCC)sc2cc(Cl)ccc12 [3-046],5 (Herbicidal rate of 90% or more (almost completely withered))
2,CCOc1ccccc1-c1sc2cc(C)ccc2c1-c1c(O)c(C)nn(C)c1=O [3-053],5 (Herbicidal rate of 90% or more (almost completely withered))
3,CCOc1cc(F)ccc1-c1sc2cc(C)ccc2c1-c1c(O)c(C)nn(C)c1=O [3-057],4 (Herbicidal rate of 70% or more and less than 90%)

# System: lambsquarters
# Test: Test Example 5: herbicidal effect by foliage application, plastic box (Table 20, symbol O)
# Type: in vivo, lambsquarters (Chenopodium album)
# Settings: foliage application, 320 g/ha, three weeks after application
# In short: as §1
row,Compound,"O: lambsquarters, herbicidal effect grade"
1,CCCC(=O)Oc1c(C)nn(C)c(=O)c1-c1c(-c2ccc(F)cc2OCC)sc2cc(Cl)ccc12 [3-046],3 (Herbicidal rate of 40% or more and less than 70%)
2,CCOc1ccccc1-c1sc2cc(C)ccc2c1-c1c(O)c(C)nn(C)c1=O [3-053],5 (Herbicidal rate of 90% or more (almost completely withered))
3,CCOc1cc(F)ccc1-c1sc2cc(C)ccc2c1-c1c(O)c(C)nn(C)c1=O [3-057],5 (Herbicidal rate of 90% or more (almost completely withered))

# System: wild oat
# Test: Test Example 4: herbicidal effect by soil treatment (Table 19, symbol I)
# Type: in vivo, wild oat (Avena fatua)
# Settings: amount of applied herbicide 320 g/ha
# In short: (§3)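 Step 1: sow seeds in sterilized diluvial soil, cover ~1.5 cm. Step 2: spray diluted emulsion onto soil surface at predetermined rate. Step 3: greenhouse, 25–30° C, three weeks. Step 4: grade effect on each plant by earlier criteria.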
row,Compound,"I: wild oat, herbicidal effect grade"
1,CCCC(=O)Oc1c(C)nn(C)c(=O)c1-c1c(-c2ccc(F)cc2OCC)sc2cc(Cl)ccc12 [3-046],0 (Herbicidal rate of 5% or less (almost no effect))
2,CCOc1ccccc1-c1sc2cc(C)ccc2c1-c1c(O)c(C)nn(C)c1=O [3-053],4 (Herbicidal rate of 70% or more and less than 90%)
3,CCOc1cc(F)ccc1-c1sc2cc(C)ccc2c1-c1c(O)c(C)nn(C)c1=O [3-057],3 (Herbicidal rate of 40% or more and less than 70%)

# System: chickweed
# Test: Test Example 5: herbicidal effect by foliage application, plastic box (Table 20, symbol P)
# Type: in vivo, common chickweed (Stellaria media)
# Settings: foliage application, 320 g/ha, three weeks after application
# In short: as §1
row,Compound,"P: chickweed, herbicidal effect grade"
1,CCCC(=O)Oc1c(C)nn(C)c(=O)c1-c1c(-c2ccc(F)cc2OCC)sc2cc(Cl)ccc12 [3-046],5 (Herbicidal rate of 90% or more (almost completely withered))
2,CCOc1ccccc1-c1sc2cc(C)ccc2c1-c1c(O)c(C)nn(C)c1=O [3-053],5 (Herbicidal rate of 90% or more (almost completely withered))
3,CCOc1cc(F)ccc1-c1sc2cc(C)ccc2c1-c1c(O)c(C)nn(C)c1=O [3-057],5 (Herbicidal rate of 90% or more (almost completely withered))

# System: late watergrass
# Test: Test Example 2: herbicidal activity, application during weed generation under submerged conditions (Table 17, symbol A)
# Type: in vivo, late watergrass (Echinochloa oryzicola)
# Settings: AAH 320 g/ha; application during weed generation, submerged conditions
# In short: (§4)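 Mixed weed seedlings in alluvial soil under a 4 cm water layer, greenhouse-grown at 25–30° C. Compound given as a diluted emulsion into the floodwater at the 1–2 leaf stage; response graded after three weeks.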
row,Compound,"herbicidal effect rating, A: late watergrass"
1,CCCC(=O)Oc1c(C)nn(C)c(=O)c1-c1c(-c2ccc(F)cc2OCC)sc2cc(Cl)ccc12 [3-046],0 (Herbicidal rate of 5% or less (almost no effect))
2,CCOc1ccccc1-c1sc2cc(C)ccc2c1-c1c(O)c(C)nn(C)c1=O [3-053],3 (Herbicidal rate of 40% or more and less than 70%)
3,CCOc1cc(F)ccc1-c1sc2cc(C)ccc2c1-c1c(O)c(C)nn(C)c1=O [3-057],4 (Herbicidal rate of 70% or more and less than 90%)

# System: lambsquarters
# Test: Test Example 4: herbicidal effect by soil treatment (Table 19, symbol O)
# Type: in vivo, lambsquarters (Chenopodium album)
# Settings: amount of applied herbicide 320 g/ha
# In short: as §3
row,Compound,"O: lambsquarters, herbicidal effect grade"
1,CCCC(=O)Oc1c(C)nn(C)c(=O)c1-c1c(-c2ccc(F)cc2OCC)sc2cc(Cl)ccc12 [3-046],3 (Herbicidal rate of 40% or more and less than 70%)
2,CCOc1ccccc1-c1sc2cc(C)ccc2c1-c1c(O)c(C)nn(C)c1=O [3-053],4 (Herbicidal rate of 70% or more and less than 90%)
3,CCOc1cc(F)ccc1-c1sc2cc(C)ccc2c1-c1c(O)c(C)nn(C)c1=O [3-057],5 (Herbicidal rate of 90% or more (almost completely withered))

# System: wild oat
# Test: Test Example 5: herbicidal effect by foliage application, plastic box (Table 20, symbol I)
# Type: in vivo, wild oat (Avena fatua)
# Settings: foliage application, 320 g/ha, three weeks after application
# In short: as §1
row,Compound,"I: wild oat, herbicidal effect grade"
1,CCCC(=O)Oc1c(C)nn(C)c(=O)c1-c1c(-c2ccc(F)cc2OCC)sc2cc(Cl)ccc12 [3-046],5 (Herbicidal rate of 90% or more (almost completely withered))
2,CCOc1ccccc1-c1sc2cc(C)ccc2c1-c1c(O)c(C)nn(C)c1=O [3-053],5 (Herbicidal rate of 90% or more (almost completely withered))
3,CCOc1cc(F)ccc1-c1sc2cc(C)ccc2c1-c1c(O)c(C)nn(C)c1=O [3-057],5 (Herbicidal rate of 90% or more (almost completely withered))

# System: Italian ryegrass
# Test: Test Example 5: herbicidal effect by foliage application, plastic box (Table 20, symbol K)
# Type: in vivo, Italian ryegrass (Lolium multiflorum)
# Settings: foliage application, 320 g/ha, three weeks after application
# In short: as §1
row,Compound,"K: Italian ryegrass, herbicidal effect grade"
1,CCCC(=O)Oc1c(C)nn(C)c(=O)c1-c1c(-c2ccc(F)cc2OCC)sc2cc(Cl)ccc12 [3-046],0 (Herbicidal rate of 5% or less (almost no effect))
2,CCOc1ccccc1-c1sc2cc(C)ccc2c1-c1c(O)c(C)nn(C)c1=O [3-053],5 (Herbicidal rate of 90% or more (almost completely withered))
3,CCOc1cc(F)ccc1-c1sc2cc(C)ccc2c1-c1c(O)c(C)nn(C)c1=O [3-057],5 (Herbicidal rate of 90% or more (almost completely withered))

# System: velvetleaf
# Test: Test Example 5: herbicidal effect by foliage application, plastic box (Table 20, symbol M)
# Type: in vivo, velvetleaf (Abutilon theophrasti)
# Settings: foliage application, 320 g/ha, three weeks after application
# In short: as §1
row,Compound,"M: velvetleaf, herbicidal effect grade"
1,CCCC(=O)Oc1c(C)nn(C)c(=O)c1-c1c(-c2ccc(F)cc2OCC)sc2cc(Cl)ccc12 [3-046],4 (Herbicidal rate of 70% or more and less than 90%)
2,CCOc1ccccc1-c1sc2cc(C)ccc2c1-c1c(O)c(C)nn(C)c1=O [3-053],5 (Herbicidal rate of 90% or more (almost completely withered))
3,CCOc1cc(F)ccc1-c1sc2cc(C)ccc2c1-c1c(O)c(C)nn(C)c1=O [3-057],5 (Herbicidal rate of 90% or more (almost completely withered))

# System: Japanese bulrush
# Test: Test Example 2: herbicidal activity, application during weed generation under submerged conditions (Table 17, symbol B)
# Type: in vivo, Japanese bulrush (Schoenoplectus juncoides)
# Settings: AAH 320 g/ha; application during weed generation, submerged conditions
# In short: as §4
row,Compound,"herbicidal effect rating, B: Japanese bulrush"
1,CCCC(=O)Oc1c(C)nn(C)c(=O)c1-c1c(-c2ccc(F)cc2OCC)sc2cc(Cl)ccc12 [3-046],2 (Herbicidal rate of 20% or more and less than 40%)
2,CCOc1ccccc1-c1sc2cc(C)ccc2c1-c1c(O)c(C)nn(C)c1=O [3-053],3 (Herbicidal rate of 40% or more and less than 70%)
3,CCOc1cc(F)ccc1-c1sc2cc(C)ccc2c1-c1c(O)c(C)nn(C)c1=O [3-057],4 (Herbicidal rate of 70% or more and less than 90%)

# System: windgrass
# Test: Test Example 5: herbicidal effect by foliage application, plastic box (Table 20, symbol L)
# Type: in vivo, windgrass (Apera spica-venti)
# Settings: foliage application, 320 g/ha, three weeks after application
# In short: as §1
row,Compound,"L: windgrass, herbicidal effect grade"
1,CCCC(=O)Oc1c(C)nn(C)c(=O)c1-c1c(-c2ccc(F)cc2OCC)sc2cc(Cl)ccc12 [3-046],4 (Herbicidal rate of 70% or more and less than 90%)
2,CCOc1ccccc1-c1sc2cc(C)ccc2c1-c1c(O)c(C)nn(C)c1=O [3-053],5 (Herbicidal rate of 90% or more (almost completely withered))
3,CCOc1cc(F)ccc1-c1sc2cc(C)ccc2c1-c1c(O)c(C)nn(C)c1=O [3-057],5 (Herbicidal rate of 90% or more (almost completely withered))

# System: Italian ryegrass
# Test: Test Example 4: herbicidal effect by soil treatment (Table 19, symbol K)
# Type: in vivo, Italian ryegrass (Lolium multiflorum)
# Settings: amount of applied herbicide 320 g/ha
# In short: as §3
row,Compound,"K: Italian ryegrass, herbicidal effect grade"
1,CCCC(=O)Oc1c(C)nn(C)c(=O)c1-c1c(-c2ccc(F)cc2OCC)sc2cc(Cl)ccc12 [3-046],0 (Herbicidal rate of 5% or less (almost no effect))
2,CCOc1ccccc1-c1sc2cc(C)ccc2c1-c1c(O)c(C)nn(C)c1=O [3-053],4 (Herbicidal rate of 70% or more and less than 90%)
3,CCOc1cc(F)ccc1-c1sc2cc(C)ccc2c1-c1c(O)c(C)nn(C)c1=O [3-057],2 (Herbicidal rate of 20% or more and less than 40%)

# System: persian speedwell
# Test: Test Example 4: herbicidal effect by soil treatment (Table 19, symbol R)
# Type: in vivo, Persian speedwell (Veronica persica)
# Settings: amount of applied herbicide 320 g/ha
# In short: as §3
row,Compound,"R: persian speedwell, herbicidal effect grade"
1,CCCC(=O)Oc1c(C)nn(C)c(=O)c1-c1c(-c2ccc(F)cc2OCC)sc2cc(Cl)ccc12 [3-046],4 (Herbicidal rate of 70% or more and less than 90%)
2,CCOc1ccccc1-c1sc2cc(C)ccc2c1-c1c(O)c(C)nn(C)c1=O [3-053],5 (Herbicidal rate of 90% or more (almost completely withered))
3,CCOc1cc(F)ccc1-c1sc2cc(C)ccc2c1-c1c(O)c(C)nn(C)c1=O [3-057],5 (Herbicidal rate of 90% or more (almost completely withered))

# System: velvetleaf
# Test: Test Example 4: herbicidal effect by soil treatment (Table 19, symbol M)
# Type: in vivo, velvetleaf (Abutilon theophrasti)
# Settings: amount of applied herbicide 320 g/ha
# In short: as §3
row,Compound,"M: velvetleaf, herbicidal effect grade"
1,CCCC(=O)Oc1c(C)nn(C)c(=O)c1-c1c(-c2ccc(F)cc2OCC)sc2cc(Cl)ccc12 [3-046],1 (Herbicidal rate of 5% or more and less than 20%)
2,CCOc1ccccc1-c1sc2cc(C)ccc2c1-c1c(O)c(C)nn(C)c1=O [3-053],0 (Herbicidal rate of 5% or less (almost no effect))
3,CCOc1cc(F)ccc1-c1sc2cc(C)ccc2c1-c1c(O)c(C)nn(C)c1=O [3-057],2 (Herbicidal rate of 20% or more and less than 40%)
